Values of other authors as cited in US7687487B2, “Camptothecin-analog with a novel, “flipped” lactone-stable, E-ring and methods for making and using same” (BioNumerik Pharmaceuticals, Inc., priority 2007, dated 2010).
“Also recorded” adds a separate entry of the source. Read-outs that look alike come from different tables or passages of the source.

Tests used:
tumors by Tumor Type = conditions: et al
[1] = for Toxicity: et al, * Dose Limiting Toxicity
[2] = system: advanced malignant melanoma; conditions: fifteen patients
[3] = 24 hours after administration, once daily for 5 days, 6.5-20 mg/m^2/day
[4] = not given; remark: listed apart in the source
gastrointestinal cancer = conditions: after 2 months (8 or 9 weeks)
[5] = versus lactone form

## CCc1c2c(nc3ccc(OC(=O)N4CCC(N5CCCCC5)CC4)cc13)-c1cc3c(c(=O)n1C2)COC(=O)[C@]3(O)CC [CPT-11, 7-ethyl-10-[4-(1-piperidino)-1-piperidino]carbonyloxy camptothecin]
Tumors by Tumor Type; Clavel, 37 Pts.
  Tumor Type: Breast, responses: (1 PR)
  Tumor Type: Mesothelioma, responses: (1 PR)
Tumors by Tumor Type; Culine, 59 Pts.
  Tumor Type: Esophagus, responses: (1 PR) cervix
  Tumor Type: Ovarian, responses: (1 PR)
  Tumor Type: cervix, responses: (1 PR) renal
  Tumor Type: renal, responses: (1 PR)
Tumors by Tumor Type; Negoro, 17 Pts.
  Tumor Type: NS CLC, responses: (2 PRs)
Tumors by Tumor Type; Ohe, 36 Pts.
  Tumor Type with responses: None
Tumors by Tumor Type; Rothenberg, 32 Pts.
  Tumor Type: Colon Ca, responses: (2 PRs)
Tumors by Tumor Type; Rowinsky, 32 Pts.
  Tumor Type: Cervix Ca, responses: (1 PR)
  Tumor Type: Colon Cancer, responses: (1 PR)
[1]; Clavel, 90 min. QDx 3 Q21 Days, 37 Pts., 115 mg/m^2/d (33-115)
  Toxicity: neutropenia*; also recorded: diarrhea,; also recorded: vomiting,
[1]; Ohe, 120 hr CI Q3 wks, 36 Pts., 40 mg/m^2/d (5-40)
  Toxicity: diarrhea*; also recorded: vomiting,; also recorded: thrombocytopenia; also recorded: Anemia; also recorded: liver
[1]; Phase I clinical trials summarised in Table VII
  major reported dose-limiting toxicities: Neutropenia and diarrhea

## CC[C@@]1(O)C(=O)OCc2c1cc1n(c2=O)Cc2cc3ccccc3nc2-1 [CPT sodium]
[2]; 90-360 mg/m^2 every 2 weeks
  50% or greater decrease in tumor diameter: None of the patients
  myelosuppression: 11 patients
[2]; no clinical benefit associated
  less pronounced transient tumor regression: three patients
[3]
  relation of plasma CPT levels to dose: little relation to the dose given
Doses of 20 to 30 mg/m^2
  bladder toxicity: dose limiting in three patients
Fifteen patients, 20-67 mg/m^2 weekly, intravenous push
  most prominent non-hematologic toxic effect: Cystitis
[4]; 5-Day Course, P < 0.05
  Cystitis (% of 27 Patients): 48 (P < 0.05) %
[4]; Single Dose method of administration
  Cystitis (% of 34 Patients): 24%
[4]; higher doses
  persistence of diarrhea: ≤ 4 weeks
[4]; in vivo
  onset of cystitis after treatment: 7 to 10 days
Gastrointestinal cancer
  patients with partial objective improvement: only two of their 61 patients

## CC[C@@](O)(C(=O)O)c1cc2n(c(=O)c1CO)Cc1cc3ccccc3nc1-2 [carboxylate form of CPT]
[5]
  reduction of anti-tumor activity: at least 10 fold
